Experiment: refractive index (Na D-line) (dimensionless); wn = mass fraction of the nth substance listed
Settings: 100 kPa, Liquid, Standard Abbe refractometry

[Na+].[OH-] [sodium hydroxide] + O
refractive index
Settings | 308.15 K | 313.15 K | 318.15 K | 323.15 K | 328.15 K | 333.15 K
w1 = 0.2 | – | 1.3801 | 1.3795 | 1.3788 | 1.3788 | 1.3794
w1 = 0.21 | – | 1.3825 | 1.3819 | 1.3815 | 1.381 | 1.3812
w1 = 0.22 | – | 1.3851 | 1.3847 | 1.3844 | 1.3836 | 1.3835
w1 = 0.23 | – | 1.3866 | 1.3858 | 1.3853 | 1.3852 | 1.3857
w1 = 0.24 | – | 1.3886 | 1.3877 | 1.3869 | 1.3862 | 1.3847
w1 = 0.25 | – | 1.3917 | 1.391 | 1.3904 | 1.39 | 1.3894
w1 = 0.26 | – | 1.3938 | 1.3931 | 1.3926 | 1.3922 | 1.3915
w1 = 0.27 | – | 1.3955 | 1.3946 | 1.3937 | 1.3929 | 1.3923
w1 = 0.28 | – | 1.3975 | 1.3968 | 1.3961 | 1.3953 | 1.3941
w1 = 0.29 | – | 1.3999 | 1.3989 | 1.3981 | 1.397 | 1.3964
w1 = 0.3 | – | 1.4011 | 1.4002 | 1.3994 | 1.3986 | 1.3977
w1 = 0.31 | – | 1.4033 | 1.4024 | 1.4016 | 1.4008 | 1.3998
w1 = 0.32 | – | 1.4044 | 1.4036 | 1.4025 | 1.4018 | 1.4008
w1 = 0.33 | – | 1.4061 | 1.4051 | 1.4042 | 1.4033 | 1.4024
w1 = 0.34 | – | 1.4086 | 1.4077 | 1.4068 | 1.4058 | 1.4048
w1 = 0.35 | 1.4114 | 1.4105 | 1.4095 | 1.4085 | 1.4076 | 1.4066
w1 = 0.36 | 1.413 | 1.4121 | 1.4111 | 1.4102 | 1.4093 | 1.4083
w1 = 0.37 | 1.4145 | 1.4136 | 1.4126 | 1.4117 | 1.4107 | 1.4098
w1 = 0.38 | 1.4163 | 1.4154 | 1.4145 | 1.4135 | 1.4126 | 1.4116
w1 = 0.39 | 1.418 | 1.417 | 1.416 | 1.4151 | 1.4142 | 1.4133
w1 = 0.4 | 1.4196 | 1.4186 | 1.4177 | 1.4167 | 1.4159 | 1.415
w1 = 0.41 | 1.4206 | 1.4196 | 1.4186 | 1.4177 | 1.4167 | 1.4159
w1 = 0.42 | 1.4221 | 1.4212 | 1.4202 | 1.4192 | 1.4183 | 1.4174
w1 = 0.43 | 1.4236 | 1.4226 | 1.4217 | 1.4207 | 1.4198 | 1.4189
w1 = 0.44 | 1.4245 | 1.4235 | 1.4226 | 1.4217 | 1.4208 | 1.4198
w1 = 0.45 | 1.4258 | 1.425 | 1.4239 | 1.423 | 1.4221 | 1.4212
w1 = 0.46 | 1.4275 | 1.4266 | 1.4256 | 1.4247 | 1.4238 | 1.4229
w1 = 0.47 | 1.4285 | 1.4275 | 1.4266 | 1.4257 | 1.4248 | 1.4239
w1 = 0.48 | 1.4301 | 1.4292 | 1.4282 | 1.4273 | 1.4264 | 1.4255
w1 = 0.49 | 1.4309 | 1.43 | 1.4289 | 1.428 | 1.4271 | 1.4263
w1 = 0.5 | 1.4319 | 1.4311 | 1.4302 | 1.4293 | 1.4284 | 1.4276

From the NIST ThermoML archive (doi:10.1021/acs.jced.9b00536)
